Test results: patent US20090041778A1, “Methods And Compositions For The Treatment Of Graft Failure” (priority 2004, published 2009)
Values after ≈ are worked out from the molar mass of the structure shown. “Also recorded” adds a separate entry of the source. Where a name gives a salt, the structure may show the parent alone.

How the values were obtained:
[1] = system: neointimal hyperplasia; conditions: rabbit carotid artery balloon angioplasty and vein graft intimal hyperplasia models; cited from earlier work
[2] = system: human aortic vascular smooth muscle cell (HASOM cells); test: PDGF-induced migration of HASOM cells in a 24-well Boyden chamber; assay type: cell-based
Experimental: (§1) The cells were then cultured in the presence of these agents for forty-eight hours prior to the migration assay. […] Each well contained an insert with a polycarbonate filter having 8 μm pores. In preparation for the migration assays, the membranes were coated with 0.1% gelatin for 8 hours, aspirated, and allowed to dry for 2 hours.
(§2) The M-199 media containing 0.5% BSA and 20 ng/ml human PDGF-B (hPDGF-BB) was placed in the bottom Boyden chamber. Cells were incubated at 5% CO2 at 37° C. for twelve hours and the cells lying on the upper surface of the membrane were scraped off. The insert membranes were removed and the cells on the lower surface of each membrane were stained with hematoxylin. Cell migration was then quantified by counting the cells in five random high-power fields on the lower surface of the membrane. All assays were run in triplicate.

[3] = system: cells of porcine origin from a primary explant of porcine carotid artery; test: PDGF-induced migration of cells of porcine origin (Boyden chamber); assay type: cell-based; conditions: hPDGF-BB 20 ng/ml; second passage cells; dose dependent
Experimental: as §1, §2

[4] = system: intimal thickening after balloon angioplasty; conditions: rabbit model; administered systemically; cited from earlier work
[5] = system: neointimal hyperplasia in mouse vein grafts; conditions: administered locally; cited from earlier work
[6] = Solubility in aqueous buffer / hydrophilicity; assay type: physicochemical
[7] = cited from earlier work

COc1cccc(CCc2ccccc2OCC(CN(C)C)OC(=O)CCC(=O)O)c1.Cl (stereo not drawn) [Anplag]
prevention of neointimal hyperplasia [1]: effective

Cc1ccc(NC(=O)c2ccc(CN3CCN(C)CC3)cc2)cc1Nc1nccc(-c2cccnc2)n1 [Gleevec, imatinib mesylate]
inhibition of PDGF induced migration of HASOM cells ([2]; hPDGF-BB 20 ng/ml, 48 h drug pre-treatment, 12 h migration, dose dependent): potently inhibited; also recorded: inhibited migration
inhibition of PDGF-B induced migration of porcine cells [3]: inhibited

O=C(c1ccc(F)cc1)C1CCN(CCn2c(=O)[nH]c3ccccc3c2=O)CC1 [Ketanserin]
prevention of neointimal hyperplasia [1]: effective

Cc1ccc(C(=O)Nc2ccc(S(=O)(=O)O)c3cc(S(=O)(=O)O)cc(S(=O)(=O)O)c23)cc1NC(=O)c1cccc(NC(=O)Nc2cccc(C(=O)Nc3cc(C(=O)Nc4ccc(S(=O)(=O)O)c5cc(S(=O)(=O)O)cc(S(=O)(=O)O)c45)ccc3C)c2)c1 [Suramin]
inhibition of intimal thickening after balloon angioplasty [4]: inhibit intimal thickening
inhibition of neointimal hyperplasia in mouse vein grafts [5]: effective

CO[C@H]1C[C@@H]2CC[C@@H](C)[C@@](O)(O2)C(=O)C(=O)N2CCCC[C@H]2C(=O)O[C@H]([C@H](C)C[C@@H]2CC[C@@H](O)[C@H](OC)C2)CC(=O)[C@H](C)/C=C(\C)[C@@H](O)[C@@H](OC)C(=O)[C@H](C)C[C@H](C)/C=C/C=C/C=C/1C [rapamycin]
IC50 ([2]; Homo sapiens, in vitro VSMC migration, read-out: IC50 for blocking VSMC migration): 1 to 5 ng/mL (≈ 1.09 to 5.47 nM)
hydrophilicity [6]: very hydrophilic
absorption after oral administration [7]: absorbed rapidly and completely
